# System: 941728-121-R-J1-PDC complex spheroid viability
# Test: Anticancer human tumor 941728-121-R-J1-PDC patient-derived lung adenocarcinoma cell line growth inhibition [RAS]
# Conditions: for IC50: curve of first compound; for viability, T/C: stronger effect = lower value
# In short: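 Tumour cells grown as complex spheroids with HUVEC endothelial cells and mesenchymal stem cells, treated with RAS pathway inhibitor combinations. Each agent spans half-log steps from near clinical Cmax, or 10 microM where Cmax is unknown.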
# [1] = second compound 0.000949 µM, first compound 0.0316 µM
# [2] = second compound 0.000949 µM, first compound 0.1 µM
# [3] = second compound 0.000949 µM, first compound 0.316 µM
# [4] = second compound 0.000949 µM, first compound 1 µM
# [5] = second compound 0.000949 µM, first compound 3.16 µM
# [6] = second compound 0.000949 µM, first compound 10 µM
# [7] = second compound 0.003 µM, first compound 0.0316 µM
# [8] = second compound 0.003 µM, first compound 0.1 µM
# [9] = second compound 0.003 µM, first compound 0.316 µM
# [10] = second compound 0.003 µM, first compound 1 µM
# [11] = second compound 0.003 µM, first compound 3.16 µM
# [12] = second compound 0.003 µM, first compound 10 µM
# [13] = second compound 0.00949 µM, first compound 0.0316 µM
# [14] = second compound 0.00949 µM, first compound 0.1 µM
# [15] = second compound 0.00949 µM, first compound 0.316 µM
# [16] = second compound 0.00949 µM, first compound 1 µM
# [17] = second compound 0.00949 µM, first compound 3.16 µM
# [18] = second compound 0.00949 µM, first compound 10 µM
# [19] = second compound 0.03 µM, first compound 0.0316 µM
# [20] = second compound 0.03 µM, first compound 0.1 µM
# [21] = second compound 0.03 µM, first compound 0.316 µM
# [22] = second compound 0.03 µM, first compound 1 µM
# [23] = second compound 0.03 µM, first compound 3.16 µM
# [24] = second compound 0.03 µM, first compound 10 µM
# [25] = second compound 0.0949 µM, first compound 0.0316 µM
# [26] = second compound 0.0949 µM, first compound 0.1 µM
# [27] = second compound 0.0949 µM, first compound 0.316 µM
# [28] = second compound 0.0949 µM, first compound 1 µM
# [29] = second compound 0.0949 µM, first compound 3.16 µM
# [30] = second compound 0.0949 µM, first compound 10 µM
# [31] = second compound 0.3 µM, first compound 0.0316 µM
# [32] = second compound 0.3 µM, first compound 0.1 µM
# [33] = second compound 0.3 µM, first compound 0.316 µM
# [34] = second compound 0.3 µM, first compound 1 µM
# [35] = second compound 0.3 µM, first compound 3.16 µM
# [36] = second compound 0.3 µM, first compound 10 µM
# [37] = second compound 0.000949 µM, first compound 0.00316 µM
# [38] = second compound 0.000949 µM, first compound 0.01 µM
# [39] = second compound 0.003 µM, first compound 0.00316 µM
# [40] = second compound 0.003 µM, first compound 0.01 µM
# [41] = second compound 0.00949 µM, first compound 0.00316 µM
# [42] = second compound 0.00949 µM, first compound 0.01 µM
# [43] = second compound 0.03 µM, first compound 0.00316 µM
# [44] = second compound 0.03 µM, first compound 0.01 µM
# [45] = second compound 0.0949 µM, first compound 0.00316 µM
# [46] = second compound 0.0949 µM, first compound 0.01 µM
# [47] = second compound 0.3 µM, first compound 0.00316 µM
# [48] = second compound 0.3 µM, first compound 0.01 µM
# 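Further: spheroids exposed to compounds for 7 days before readout.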
# 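Wherever viability, T/C is given: 100% = DMSO vehicle control viability.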
smiles,measurement,setting,value
CC(C)NCC(C(=O)N1CCN(c2ncnc3c2C(C)CC3O)CC1)c1ccc(Cl)cc1 (stereo not drawn) + CCn1c(-c2cccnc2C(C)OC)c2c3cc(ccc31)N1CCOC(CC(NC(=O)C(C(C)C)N(C)C(=O)C3(F)CCN(C(=O)C#CC(C)(C)N(C)C)CC3)C(=O)N3CCCC(N3)C(=O)OCC(C)(C)C2)C1,IC50,second compound 0.000949 µM,< 31.6 nM
same,IC50,second compound 0.003 µM,< 31.6 nM
same,IC50,second compound 0.00949 µM,< 31.6 nM
same,IC50,second compound 0.03 µM,< 31.6 nM
same,IC50,second compound 0.0949 µM,< 31.6 nM
same,IC50,second compound 0.3 µM,< 31.6 nM
same,"viability, T/C",[1],25.4%
same,"viability, T/C",[2],23%
same,"viability, T/C",[3],17.7%
same,"viability, T/C",[4],18.8%
same,"viability, T/C",[5],14.5%
same,"viability, T/C",[6],7.61%
same,"viability, T/C",[7],23.5%
same,"viability, T/C",[8],21.9%
same,"viability, T/C",[9],18.5%
same,"viability, T/C",[10],18.1%
same,"viability, T/C",[11],14.7%
same,"viability, T/C",[12],9.24%
same,"viability, T/C",[13],23.1%
same,"viability, T/C",[14],15.8%
same,"viability, T/C",[15],22.4%
same,"viability, T/C",[16],17.5%
same,"viability, T/C",[17],13.2%
same,"viability, T/C",[18],9.76%
same,"viability, T/C",[19],22.8%
same,"viability, T/C",[20],22.1%
same,"viability, T/C",[21],19.3%
same,"viability, T/C",[22],17.7%
same,"viability, T/C",[23],12.9%
same,"viability, T/C",[24],10.9%
same,"viability, T/C",[25],21.1%
same,"viability, T/C",[26],21.2%
same,"viability, T/C",[27],20.7%
same,"viability, T/C",[28],17.8%
same,"viability, T/C",[29],11.9%
same,"viability, T/C",[30],10.9%
same,"viability, T/C",[31],24.7%
same,"viability, T/C",[32],22.9%
same,"viability, T/C",[33],18.9%
same,"viability, T/C",[34],17.1%
same,"viability, T/C",[35],13%
same,"viability, T/C",[36],11.2%
CC(C)n1nc(-c2ccc3oc(N)nc3c2)c2c(N)ncnc21 + CCn1c(-c2cccnc2C(C)OC)c2c3cc(ccc31)N1CCOC(CC(NC(=O)C(C(C)C)N(C)C(=O)C3(F)CCN(C(=O)C#CC(C)(C)N(C)C)CC3)C(=O)N3CCCC(N3)C(=O)OCC(C)(C)C2)C1,IC50,second compound 0.000949 µM,< 0.316 nM
same,IC50,second compound 0.003 µM,< 0.316 nM
same,IC50,second compound 0.00949 µM,< 0.316 nM
same,IC50,second compound 0.03 µM,< 0.316 nM
same,IC50,second compound 0.0949 µM,< 0.316 nM
same,IC50,second compound 0.3 µM,< 0.316 nM
same,"viability, T/C","second compound 0.000949 µM, first compound 0.000316 µM",21.4%
same,"viability, T/C","second compound 0.000949 µM, first compound 0.001 µM",19.7%
same,"viability, T/C",[37],12.9%
same,"viability, T/C",[38],15.4%
same,"viability, T/C",[1],11.6%
same,"viability, T/C",[2],6.3%
same,"viability, T/C","second compound 0.003 µM, first compound 0.000316 µM",23.6%
same,"viability, T/C","second compound 0.003 µM, first compound 0.001 µM",19.4%
same,"viability, T/C",[39],14.5%
same,"viability, T/C",[40],15.6%
same,"viability, T/C",[7],9.94%
same,"viability, T/C",[8],7.46%
same,"viability, T/C","second compound 0.00949 µM, first compound 0.000316 µM",21%
same,"viability, T/C","second compound 0.00949 µM, first compound 0.001 µM",17.3%
same,"viability, T/C",[41],19.8%
same,"viability, T/C",[42],15.3%
same,"viability, T/C",[13],9.22%
same,"viability, T/C",[14],6.25%
same,"viability, T/C","second compound 0.03 µM, first compound 0.000316 µM",20.8%
same,"viability, T/C","second compound 0.03 µM, first compound 0.001 µM",19.7%
same,"viability, T/C",[43],16.8%
same,"viability, T/C",[44],14.8%
same,"viability, T/C",[19],8.83%
same,"viability, T/C",[20],8.55%
same,"viability, T/C","second compound 0.0949 µM, first compound 0.000316 µM",18.8%
same,"viability, T/C","second compound 0.0949 µM, first compound 0.001 µM",20.8%
same,"viability, T/C",[45],17.4%
same,"viability, T/C",[46],15.2%
same,"viability, T/C",[25],9.76%
same,"viability, T/C",[26],10.1%
same,"viability, T/C","second compound 0.3 µM, first compound 0.000316 µM",21.7%
same,"viability, T/C","second compound 0.3 µM, first compound 0.001 µM",18.9%
same,"viability, T/C",[47],18.9%
same,"viability, T/C",[48],15.9%
same,"viability, T/C",[31],10.5%
same,"viability, T/C",[32],10.8%
CC(Nc1ccc2c(c1)OCCn1cc(N3C(=O)OCC3C(F)F)nc1-2)C(N)=O (stereo not drawn) + CCn1c(-c2cccnc2C(C)OC)c2c3cc(ccc31)N1CCOC(CC(NC(=O)C(C(C)C)N(C)C(=O)C3(F)CCN(C(=O)C#CC(C)(C)N(C)C)CC3)C(=O)N3CCCC(N3)C(=O)OCC(C)(C)C2)C1,IC50,second compound 0.000949 µM,< 31.6 nM
same,IC50,second compound 0.003 µM,< 31.6 nM
same,IC50,second compound 0.00949 µM,< 31.6 nM
same,IC50,second compound 0.03 µM,< 31.6 nM
same,IC50,second compound 0.0949 µM,< 31.6 nM
same,IC50,second compound 0.3 µM,< 31.6 nM
same,"viability, T/C",[1],18.5%
same,"viability, T/C",[2],20.6%
same,"viability, T/C",[3],12.5%
same,"viability, T/C",[4],15.8%
same,"viability, T/C",[5],13.3%
same,"viability, T/C",[6],9.24%
same,"viability, T/C",[7],20.5%
same,"viability, T/C",[8],17.2%
same,"viability, T/C",[9],14.4%
same,"viability, T/C",[10],14.3%
same,"viability, T/C",[11],13.8%
same,"viability, T/C",[12],9.35%
same,"viability, T/C",[13],18.9%
same,"viability, T/C",[14],15.3%
same,"viability, T/C",[15],15.1%
same,"viability, T/C",[16],14.7%
same,"viability, T/C",[17],11.5%
same,"viability, T/C",[18],11.7%
same,"viability, T/C",[19],19.8%
same,"viability, T/C",[20],18%
same,"viability, T/C",[21],14.6%
same,"viability, T/C",[22],15.7%
same,"viability, T/C",[23],9.34%
same,"viability, T/C",[24],12.8%
same,"viability, T/C",[25],18.8%
same,"viability, T/C",[26],18.4%
same,"viability, T/C",[27],15.8%
same,"viability, T/C",[28],11.8%
same,"viability, T/C",[29],12.1%
same,"viability, T/C",[30],13.7%
same,"viability, T/C",[31],19.9%
same,"viability, T/C",[32],18.8%
same,"viability, T/C",[33],14.6%
same,"viability, T/C",[34],14.7%
same,"viability, T/C",[35],13.5%
same,"viability, T/C",[36],12.3%
O=C(c1ccc(F)c(F)c1Nc1ccc(I)cc1F)N1CC(O)([C@@H]2CCCCN2)C1 + CCn1c(-c2cccnc2C(C)OC)c2c3cc(ccc31)N1CCOC(CC(NC(=O)C(C(C)C)N(C)C(=O)C3(F)CCN(C(=O)C#CC(C)(C)N(C)C)CC3)C(=O)N3CCCC(N3)C(=O)OCC(C)(C)C2)C1,IC50,second compound 0.000949 µM,< 3.16 nM
same,IC50,second compound 0.003 µM,21.9 nM
same,IC50,second compound 0.00949 µM,< 3.16 nM
same,IC50,second compound 0.03 µM,< 3.16 nM
same,IC50,second compound 0.0949 µM,< 3.16 nM
same,IC50,second compound 0.3 µM,< 3.16 nM
same,"viability, T/C",[37],20.5%
same,"viability, T/C",[38],18.8%
same,"viability, T/C",[1],13.7%
same,"viability, T/C",[2],17.1%
same,"viability, T/C",[3],12.5%
same,"viability, T/C",[4],7.9%
same,"viability, T/C",[39],94.2%
same,"viability, T/C",[40],64.1%
same,"viability, T/C",[7],37.4%
same,"viability, T/C",[8],38%
same,"viability, T/C",[9],35.4%
same,"viability, T/C",[10],18.4%
same,"viability, T/C",[41],18.6%
same,"viability, T/C",[42],15.4%
same,"viability, T/C",[13],17%
same,"viability, T/C",[14],14.6%
same,"viability, T/C",[15],11.6%
same,"viability, T/C",[16],9.5%
same,"viability, T/C",[43],18.3%
same,"viability, T/C",[44],17.9%
same,"viability, T/C",[19],18.8%
same,"viability, T/C",[20],12.8%
same,"viability, T/C",[21],12.4%
same,"viability, T/C",[22],12.2%
same,"viability, T/C",[45],19.4%
same,"viability, T/C",[46],17.1%
same,"viability, T/C",[25],15.8%
same,"viability, T/C",[26],13.6%
same,"viability, T/C",[27],12.9%
same,"viability, T/C",[28],15.1%
same,"viability, T/C",[47],17.9%
same,"viability, T/C",[48],20%
same,"viability, T/C",[31],15.8%
same,"viability, T/C",[32],15.7%
same,"viability, T/C",[33],13.7%
same,"viability, T/C",[34],14%

# Source: PubChem BioAssay AID2060896 (Molecular Pharmacology Branch, DTP, NCI, 2025)
